According to patent US12157746B2, “Tetrahydro-1H-pyrazino[2,1-a]isoindolylquinoline compounds for the treatment of autoimmune disease” (F. HOFFMANN-LA ROCHE AG, priority 2018, dated 2024):

Each compound was assayed against T1, human TLR8 (Homo sapiens, UniProt Q9NR97) (assay: HEK293-Blue-hTLR-8 cells assay). Details: HEK293-Blue-hTLR8 cells, R848 stimulation, 20 hrs, SEAP reporter; read-out: HEK/hTLR8 IC50.
T1 sequence (Q9NR97 27-1041): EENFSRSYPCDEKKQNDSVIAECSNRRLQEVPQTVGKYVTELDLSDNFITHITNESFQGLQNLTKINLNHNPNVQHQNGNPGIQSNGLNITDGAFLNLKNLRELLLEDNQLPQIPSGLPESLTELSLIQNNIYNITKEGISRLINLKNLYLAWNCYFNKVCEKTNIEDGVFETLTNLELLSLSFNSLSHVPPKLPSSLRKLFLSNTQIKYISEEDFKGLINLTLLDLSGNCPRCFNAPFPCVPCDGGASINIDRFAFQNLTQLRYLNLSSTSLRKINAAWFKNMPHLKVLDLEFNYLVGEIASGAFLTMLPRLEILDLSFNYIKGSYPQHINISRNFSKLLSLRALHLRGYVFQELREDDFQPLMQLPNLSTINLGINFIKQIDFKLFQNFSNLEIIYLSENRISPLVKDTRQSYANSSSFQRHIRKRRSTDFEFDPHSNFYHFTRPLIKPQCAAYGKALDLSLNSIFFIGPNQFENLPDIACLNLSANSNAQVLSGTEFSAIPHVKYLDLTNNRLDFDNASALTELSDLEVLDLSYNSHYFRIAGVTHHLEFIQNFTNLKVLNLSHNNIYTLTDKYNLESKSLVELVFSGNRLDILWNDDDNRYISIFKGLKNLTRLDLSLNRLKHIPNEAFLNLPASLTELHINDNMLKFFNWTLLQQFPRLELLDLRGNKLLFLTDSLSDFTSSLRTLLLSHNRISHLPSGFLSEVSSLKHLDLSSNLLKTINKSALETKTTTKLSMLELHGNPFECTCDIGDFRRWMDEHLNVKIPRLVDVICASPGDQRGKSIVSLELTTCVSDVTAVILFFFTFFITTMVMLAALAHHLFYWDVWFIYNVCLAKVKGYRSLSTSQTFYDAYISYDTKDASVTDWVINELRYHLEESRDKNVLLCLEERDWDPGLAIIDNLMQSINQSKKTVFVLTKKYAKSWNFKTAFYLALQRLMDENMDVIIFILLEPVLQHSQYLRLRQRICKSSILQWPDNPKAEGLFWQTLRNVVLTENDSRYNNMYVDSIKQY
Type: cell-based
Summary of the method: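 Antagonism read out in HEK293-Blue-hTLR8 cells carrying an NF-κB/AP-1-driven SEAP reporter, stimulated with R848 (10 μL of 60 uM stock added) alongside serially diluted compound (1% DMSO), 20 h at 37° C. Supernatant SEAP measured with QUANTI-Blue after 2 h at 37° C, absorbance at 620-655 nm.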

Structure (SMILES) | IC50
C[C@@H]1CN(c2ccc(C(F)(F)F)c3nccnc23)C[C@@H]2c3ccc(N[C@H]4CNC[C@H]4F)cc3CN12 [Example 77, (4R,10bS)—N-[(3S,4R)-4-fluoropyrrolidin-3-yl]-4-methyl-2-[8-(trifluoromethyl)quinoxalin-5-yl]-3,4,6,10b-tetrahydro-1H-pyrazino[2,1-a]isoindol-8-amine] | < 3.2 nM
C[C@@H]1CN(c2ccc(C#N)c3ncccc23)C[C@@H]2c3ccc(NCC4(F)CNC4)cc3CN12 [Example 69, 5-[(4R,10bS)-8-[(3-fluoroazetidin-3-yl)methylamino]-4-methyl-3,4,6,10b-tetrahydro-1H-pyrazino[2,1-a]isoindol-2-yl]quinoline-8-carbonitrile] | < 3.2 nM
C[C@H]1CN(c2ccc(C#N)c3ncccc23)C[C@H]2c3ccc(N4CCNCC4)cc3CN12 [Example 2, 5-[(4S,10bR)-4-methyl-8-piperazin-1-yl-3,4,6,10b-tetrahydro-1H-pyrazino[2,1-a]isoindol-2-yl]quinoline-8-carbonitrile] | < 3.2 nM
[2H]c1ccc2c(N3C[C@@H](C)N4Cc5cc(N6CC7(CNCCO7)C6)ccc5[C@H]4C3)ccc(C#N)c2n1 [Example 90, 5-[(4R,10bS)-4-methyl-8-(5-oxa-2,8-diazaspiro[3.5]nonan-2-yl)-3,4,6,10b-tetrahydro-1H-pyrazino[2,1-a]isoindol-2-yl]-2-deuterio-quinoline-8-carbonitrile] | < 0.3 nM
CO[C@@H]1CNC[C@@H]1Nc1ccc2c(c1)CN1[C@H](C)CN(c3ccc(C#N)c4ncccc34)C[C@H]21 [Example 60, 5-[(4R,10bS)-8-[[(3S,4R)-4-methoxypyrrolidin-3-yl]amino]-4-methyl-3,4,6,10b-tetrahydro-1H-pyrazino[2,1-a]isoindol-2-yl]quinoline-8-carbonitrile] | < 3.2 nM
C[C@@H]1CN(c2ccc(C#N)c3ncccc23)C[C@@H]2c3ccc(NC[C@@H]4C[C@H](F)CN4)cc3CN12 [Example 70, 5-[(4R,10bS)-8-[[(2S,4S)-4-fluoropyrrolidin-2-yl]methylamino]-4-methyl-3,4,6,10b-tetrahydro-1H-pyrazino[2,1-a]isoindol-2-yl]quinoline-8-carbonitrile] | 0.5 nM
CO[C@H]1CNCC[C@H]1Nc1ccc2c(c1)CN1[C@H](C)CN(c3ccc(C#N)c4ncccc34)C[C@H]21 [Example 66, 5-[(4R,10bS)-8-[[(3S,4R)-3-methoxy-4-piperidyl]amino]-4-methyl-3,4,6,10b-tetrahydro-1H-pyrazino[2,1-a]isoindol-2-yl]quinoline-8-carbonitrile] | < 3.2 nM
C[C@@H]1CN(c2ccc(C#N)c3ncccc23)C[C@@H]2c3cccc(NCCN4CC[C@H](O)C4)c3CN12 [Example 80, 5-[(4R,10bS)-7-[2-[(3S)-3-hydroxypyrrolidin-1-yl]ethylamino]-4-methyl-3,4,6,10b-tetrahydro-1H-pyrazino[2,1-a]isoindol-2-yl]quinoline-8-carbonitrile] | < 3.2 nM
Cc1ccc(N2C[C@@H](C)N3Cc4cc(N[C@H]5CNC[C@H]5F)ccc4[C@H]3C2)c2cccnc12 [Example 75, (4R,10bS)—N-[(3S,4R)-4-fluoropyrrolidin-3-yl]-4-methyl-2-(8-methyl-5-quinolyl)-3,4,6,10b-tetrahydro-1H-pyrazino[2,1-a]isoindol-8-amine] | 12.4 nM
CO[C@H]1CNC[C@@H]1Nc1ccc2c(c1)CN1[C@H](C)CN(c3ccc(C#N)c4ncccc34)C[C@H]21 [Example 62, 5-[(4R,10bS)-8-[[(3S,4S)-4-methoxypyrrolidin-3-yl]amino]-4-methyl-3,4,6,10b-tetrahydro-1H-pyrazino[2,1-a]isoindol-2-yl]quinoline-8-carbonitrile] | < 3.2 nM
